Our source for the MIC, IC50 and Ratio values is ChEMBL document CHEMBL3400001, “Tricyclic 1,5-naphthyridinone oxabicyclooctane-linked novel bacterial topoisomerase inhibitors as broad-spectrum antibacterial agents-SAR of left-hand-side moiety (Part-2)” (Bioorg Med Chem Lett, 2015).

≈ marks a conversion by molar mass, not a printed value. Bounds are passed on as bounds.

The test system of assay [1] is Staphylococcus aureus. Briefly: Antimicrobial activity against Staphylococcus aureus Smith by micro broth dilution or agar based method. It counts as functional. For orientation: Dilution methods test growth across graded concentrations, often in twofold steps.
In assay [2] the test system is Escherichia coli. As to the kind of experiment: Antimicrobial activity against Escherichia coli ATCC 25922 by micro broth dilution or agar based method. Type of assay: functional.
In assay [3] the test system is Streptococcus pneumoniae. As to the kind of experiment: Antimicrobial activity against Streptococcus pneumoniae IID554 by micro broth dilution or agar based method. It counts as functional.
Assay [4] deals with Acinetobacter baumannii. Briefly: Antimicrobial activity against Acinetobacter baumannii IID876 by micro broth dilution or agar based method. It counts as functional.
Assay [5] concerns Enterococcus faecium. Briefly: Antimicrobial activity against vancomycin-resistant Enterococcus faecium A2373 expressing VanA by micro broth dilution or agar based method. It counts as functional.
The subject of assay [6] is Pseudomonas aeruginosa. As to the kind of experiment: Antimicrobial activity against Pseudomonas aeruginosa PAO1 by micro broth dilution or agar based method. Type of assay: functional.
Assay [7] concerns Enterococcus faecalis. As to the kind of experiment: Antimicrobial activity against Enterococcus faecalis ATCC 29212 MB by micro broth dilution or agar based method. Type of assay: functional.
Assay [8] has as its system Moraxella catarrhalis. As to the kind of experiment: Antimicrobial activity against Moraxella catarrhalis ATCC 25238 by micro broth dilution or agar based method. It counts as functional.
Assay [9] deals with T1, Voltage-gated inwardly rectifying potassium channel KCNH2 (Homo sapiens, UniProt Q12809). Briefly: Inhibition of human ERG by MK499 binding assay.
The subject of assay [10] is Staphylococcus aureus. As to the kind of experiment: Ratio of MIC for quinolone-resistant Staphylococcus aureus MS5935 to MIC for quinolone-[…]. Type of assay: functional.
Assay [11] concerns Haemophilus influenzae. Briefly: Antimicrobial activity against Haemophilus influenzae ATCC 49247 by micro broth dilution or agar based method. Type of assay: functional.
Assay [12] has as its target T1, Voltage-gated inwardly rectifying potassium channel KCNH2. As to the kind of experiment: Inhibition of human ERG expressed in CHO cells by Patch express assay. It counts as cell-based.
Setting [13] is: Staphylococcus aureus, Smith, read-out: MIC.
The mark [14] stands for this setting: Escherichia coli, ATCC 25922, read-out: MIC.
Setting [15] is: Streptococcus pneumoniae, IID554, read-out: MIC.
Where [16] appears, read: Acinetobacter baumannii, IID876, read-out: MIC.
[17] abbreviates: Enterococcus faecium, A2373, read-out: MIC.
Where [18] appears, read: Pseudomonas aeruginosa, PAO1, read-out: MIC.
The mark [19] stands for this setting: Enterococcus faecalis, ATCC 29212 MB, read-out: MIC.

T1 sequence (Q12809 whole entry): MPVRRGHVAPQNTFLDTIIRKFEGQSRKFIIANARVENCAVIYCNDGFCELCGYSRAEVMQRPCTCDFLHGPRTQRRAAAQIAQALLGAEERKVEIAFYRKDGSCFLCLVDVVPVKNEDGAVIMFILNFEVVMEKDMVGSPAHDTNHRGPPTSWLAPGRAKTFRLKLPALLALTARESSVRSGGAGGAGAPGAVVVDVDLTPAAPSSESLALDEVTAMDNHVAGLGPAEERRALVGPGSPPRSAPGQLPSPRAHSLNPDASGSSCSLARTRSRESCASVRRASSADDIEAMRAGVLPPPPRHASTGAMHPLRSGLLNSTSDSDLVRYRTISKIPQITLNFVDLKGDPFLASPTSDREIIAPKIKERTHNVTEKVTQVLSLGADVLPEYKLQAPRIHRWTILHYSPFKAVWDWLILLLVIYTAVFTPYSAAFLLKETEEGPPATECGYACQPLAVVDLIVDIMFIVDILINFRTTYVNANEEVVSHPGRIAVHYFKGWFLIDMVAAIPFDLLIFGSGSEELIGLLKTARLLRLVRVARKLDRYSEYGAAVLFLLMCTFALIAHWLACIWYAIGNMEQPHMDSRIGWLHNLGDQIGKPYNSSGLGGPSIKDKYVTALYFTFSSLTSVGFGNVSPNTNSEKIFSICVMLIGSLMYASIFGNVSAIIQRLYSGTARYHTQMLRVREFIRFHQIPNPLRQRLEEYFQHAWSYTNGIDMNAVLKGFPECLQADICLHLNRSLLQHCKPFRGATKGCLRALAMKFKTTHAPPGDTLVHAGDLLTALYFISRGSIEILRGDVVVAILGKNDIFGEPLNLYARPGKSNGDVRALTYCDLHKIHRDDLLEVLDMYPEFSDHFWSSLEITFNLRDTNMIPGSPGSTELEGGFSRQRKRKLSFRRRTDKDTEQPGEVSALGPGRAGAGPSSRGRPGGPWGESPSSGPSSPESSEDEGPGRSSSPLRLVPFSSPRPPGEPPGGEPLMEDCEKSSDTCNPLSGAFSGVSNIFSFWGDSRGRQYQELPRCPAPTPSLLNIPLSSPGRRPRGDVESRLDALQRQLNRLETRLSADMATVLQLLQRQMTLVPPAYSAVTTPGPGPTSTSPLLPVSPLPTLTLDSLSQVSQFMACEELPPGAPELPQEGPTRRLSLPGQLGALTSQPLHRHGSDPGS

In the case of `O=C1COc2ccc(CNC34CCC(CC5(F)Cn6c(=O)ccc7ncc(F)c5c76)(CC3)OC4)nc2N1` (racemic), the MIC in assay [1] (setting [13]) worked out at 0.25 µg/mL (≈ 0.491 µM); in assay [2] (setting [14]), 4 µg/mL (≈ 7.85 µM); in [3] (setting [15]), 0.5 µg/mL (≈ 0.981 µM); in [4] (setting [16]), 1 µg/mL (≈ 1.96 µM); in assay [5] (setting [17]) it was 4 µg/mL (≈ 7.85 µM); in [6] (setting [18]), 32 µg/mL (≈ 62.8 µM). In addition, the MIC in assay [7] (setting [19]) was found to be 2 µg/mL (≈ 3.93 µM).
Take `O=C1COc2ccc(CNC34CCC(CC5(O)Cn6c(=O)c(Cl)cc7ncc(F)c5c76)(CC3)OC4)nc2N1` (racemic): the MIC in assay [8] is 2 µg/mL (≈ 3.69 µM); in [1] (setting [13]) it was 2 µg/mL (≈ 3.69 µM); in [2] (setting [14]), 16 µg/mL (≈ 29.5 µM); in assay [3] (setting [15]) it was 2 µg/mL (≈ 3.69 µM); in assay [4] (setting [16]) it was 16 µg/mL (≈ 29.5 µM); in assay [5] (setting [17]), 32 µg/mL (≈ 59 µM). In addition, the MIC in [6] (setting [18]) was 32 µg/mL (≈ 59 µM); in assay [7] (setting [19]), 8 µg/mL (≈ 14.8 µM); in [11] it was 8 µg/mL (≈ 14.8 µM). In assay [9], the IC50 (commonly the concentration that gives 50% inhibition) was greater than 60 µM. Also, the Ratio in assay [10] is reported as less than 4.
Consider `O=C1COc2ccc(CNC34CCC(C[C@]5(O)CN6C(=O)CCc7ncc(F)c5c76)(CC3)OC4)nc2N1`, for which the MIC in [1] (setting [13]) amounted to 8 µg/mL (≈ 15.7 µM); in [2] (setting [14]), 32 µg/mL (≈ 62.8 µM); in assay [3] (setting [15]), 8 µg/mL (≈ 15.7 µM); in assay [4] (setting [16]), 32 µg/mL (≈ 62.8 µM); in assay [5] (setting [17]), 32 µg/mL (≈ 62.8 µM); in [6] (setting [18]), 32 µg/mL (≈ 62.8 µM). For the same compound, the MIC in assay [7] (setting [19]) was 16 µg/mL (≈ 31.4 µM). The compound further gave a half-inhibitory concentration (IC50) in assay [9] greater than 60 µM. In assay [10], the Ratio was less than 4.
Regarding `O=C1COc2ccc(CNC34CCC(C[C@]5(O)Cn6c(=O)c(F)cc7ncc(F)c5c76)(CC3)OC4)nc2N1`, the MIC worked out at 0.25 µg/mL (≈ 0.476 µM) in assay [8]; 0.25 µg/mL (≈ 0.476 µM) in assay [1] (setting [13]); 4 µg/mL (≈ 7.61 µM) in assay [2] (setting [14]); 0.5 µg/mL (≈ 0.951 µM) in assay [3] (setting [15]); 4 µg/mL (≈ 7.61 µM) in [4] (setting [16]); 4 µg/mL (≈ 7.61 µM) in assay [5] (setting [17]). For the same compound, the values for the MIC in assay [6] (setting [18]), in [7] (setting [19]) and in assay [11] were 16 µg/mL (≈ 30.4 µM), 2 µg/mL (≈ 3.81 µM) and 1 µg/mL (≈ 1.9 µM), respectively. This compound also showed a half-inhibitory concentration (IC50) in assay [9] greater than 60 µM. For the same compound, the Ratio in assay [10] is less than 4.
As to `O=C1COc2ccc(CNC34CCC(CC5(O)Cn6c(=O)cc(Cl)c7ncc(F)c5c76)(CC3)OC4)nc2N1` (racemic), the MIC in assay [8] was determined as 1 µg/mL (≈ 1.85 µM); in assay [1] (setting [13]), 2 µg/mL (≈ 3.69 µM); in assay [2] (setting [14]), 8 µg/mL (≈ 14.8 µM); in assay [3] (setting [15]) it was 2 µg/mL (≈ 3.69 µM); in assay [4] (setting [16]), 8 µg/mL (≈ 14.8 µM); in assay [5] (setting [17]), 32 µg/mL (≈ 59 µM). Moreover, the MIC came out at 32 µg/mL (≈ 59 µM) in [6] (setting [18]), 8 µg/mL (≈ 14.8 µM) in [7] (setting [19]) and 8 µg/mL (≈ 14.8 µM) in assay [11]. In assay [9], the IC50 is greater than 60 µM. In addition, in [10], the Ratio was less than 4.
For the compound `O=C1COc2ccc(CNC34CCC(CC5Cn6c(=O)ccc7ncc(F)c5c76)(CC3)OC4)nc2N1` (stereo in doubt; 10), the MIC in assay [1] was determined as 0.5 µg/mL (≈ 1.02 µM); in assay [2], 2 µg/mL (≈ 4.07 µM); in [3], 0.5 µg/mL (≈ 1.02 µM); in assay [4] it was 8 µg/mL (≈ 16.3 µM); in assay [5] it was 4 µg/mL (≈ 8.14 µM); in assay [6], 16 µg/mL (≈ 32.6 µM). Besides, the MIC in [7] turned out to be 2 µg/mL (≈ 4.07 µM). The IC50 in assay [9] stood at 12.3 µM; in assay [12] it was 21.6 µM.
Take `O=C1COc2ccc(CNC34CCC(CC5Cn6c(=O)ccc7ncc(F)c5c76)(CC3)OC4)nc2N1` (stereo in doubt; 9): the IC50 was found to be 15.2 µM in [9] and 15.8 µM in assay [12]. The MIC in assay [2] (setting [14]) turned out to be 1 µg/mL (≈ 2.03 µM); in assay [3], 0.25 µg/mL (≈ 0.509 µM); in assay [4] it was 0.5 µg/mL (≈ 1.02 µM); in assay [5], 1 µg/mL (≈ 2.03 µM); in [6] (setting [18]), 16 µg/mL (≈ 32.6 µM); in assay [7], 0.5 µg/mL (≈ 1.02 µM). Further, the Ratio in assay [10] is reported as less than 4.
In the case of `Cc1cc(=O)n2c3c(c(F)cnc13)[C@@](O)(CC13CCC(NCc4ccc5c(n4)NC(=O)CO5)(CC1)CO3)C2`, the MIC in [8] stood at 2 µg/mL (≈ 3.83 µM); in [1] (setting [13]) it was 8 µg/mL (≈ 15.3 µM); in assay [2] (setting [14]) it was 32 µg/mL (≈ 61.4 µM); in assay [3] (setting [15]), 8 µg/mL (≈ 15.3 µM); in assay [4] (setting [16]), 2 µg/mL (≈ 3.83 µM); in assay [5] (setting [17]), 32 µg/mL (≈ 61.4 µM). Besides, the MIC in [6] (setting [18]) worked out at 32 µg/mL (≈ 61.4 µM); in assay [7] (setting [19]), 16 µg/mL (≈ 30.7 µM); in [11] it was 16 µg/mL (≈ 30.7 µM). In assay [9], this compound had a concentration for half-maximal inhibition (IC50) greater than 60 µM. The Ratio in [10] was less than 4.
Take `O=C1COc2ccc(CNC34CCC(C[C@@]5(O)CN6C(=O)CCc7ncc(F)c5c76)(CC3)OC4)nc2N1`: the MIC was 8 µg/mL (≈ 15.7 µM) in assay [1] (setting [13]); 32 µg/mL (≈ 62.8 µM) in assay [2] (setting [14]); 32 µg/mL (≈ 62.8 µM) in assay [3] (setting [15]); 32 µg/mL (≈ 62.8 µM) in assay [4] (setting [16]); 32 µg/mL (≈ 62.8 µM) in [5] (setting [17]); 32 µg/mL (≈ 62.8 µM) in assay [6] (setting [18]). Besides, the MIC in assay [7] (setting [19]) stood at 32 µg/mL (≈ 62.8 µM). In addition, the IC50 in assay [9] is greater than 60 µM. Moreover, the Ratio in assay [10] was less than 4.
Consider `COc1cnc2ccc(=O)n3c2c1[C@@](O)(CC12CCC(NCc4ccc5c(n4)NC(=O)CO5)(CC1)CO2)C3`, for which the MIC in [1] (setting [13]) was 8 µg/mL (≈ 15.4 µM); in assay [2] (setting [14]) it was 32 µg/mL (≈ 61.6 µM); in [3] (setting [15]), 32 µg/mL (≈ 61.6 µM); in assay [4] (setting [16]), 32 µg/mL (≈ 61.6 µM); in assay [5] (setting [17]), 32 µg/mL (≈ 61.6 µM); in assay [6] (setting [18]) it was 32 µg/mL (≈ 61.6 µM). Besides, the MIC in [7] (setting [19]) worked out at 32 µg/mL (≈ 61.6 µM).
